Results reported in patent publication US20150141439A1, “PHARMACEUTICAL COMPOSITION FOR THE PREVENTION OR TREATMENT OF BRAIN TUMOR OR TEMODAL RESISTANT GLIOBLASTOMA MULTIFORM COMPRISING AZATHIOPRINE AS AN ACTIVE INGREDIENT” (KOREA RESEARCH INSTITUTE OF CHEMICAL TECHNOLOGY, priority 2012, published 2015).
pIC50: −log10 of the molar value.

Columns and labels:
[1] = test system: HaCat Human keratinocyte; experiment: Secondary cytotoxicity test, HaCat; assay type: cell-based
Protocol: (§1) Particularly, the cell growth inhibition effect was measured by WST-1 cell proliferation assay [http://www.roche-applied-science.com/PROD_INF/MANUALS/CELL_MAN/apoptosis—087—088.pdf]. The compound of formula 1 was loaded in a 384-well cell culture plate. Three types of glioblastoma multiform cell lines [proneural subtype (559T), mesenchymal subtype (592T), and classical subtype (626T)], normal human astrocytes (NHA), a lung cancer cell line (A549), and a glioblastoma multiform cell line (U87MG) were distributed in the plate at the density of 4.5×10^3 cells/well, and the medium was filled up to make 50 μl per well. At this time, the concentration of the solvent DMSO for the compound of formula 1 was no more than 0.2%. After culturing the cells for 72 hours, 5 mg/ml of WST-1 reagent was added by 5 μl per well, followed by reaction for 3˜4 hours. Then OD450 was measured to investigate the effect of the compound of formula 1 on cell proliferation.
(§2) To investigate the cell growth inhibition effect of the compound of formula 1 of the present invention (azathioprine) in many different cell lines, secondary cytotoxicity test was performed with the cell lines listed in Table 5 by the same manner as described in Example 1.

[2] = test system: U2932 Human DLBCL (Diffuse large B-cell lymphoma); experiment: Secondary cytotoxicity test, U2932; assay type: cell-based
Protocol: as §1, §2

[3] = test system: HepG2 Human hepatocarcinoma; experiment: Secondary cytotoxicity test, HepG2; assay type: cell-based
Protocol: as §1, §2

[4] = test system: CCD986SK Human fibroblast; experiment: Secondary cytotoxicity test, CCD986SK; assay type: cell-based; settings: CCD-986Sk
Protocol: as §1, §2

[5] = test system: NCI-H23 Human lung adenocarcinoma; experiment: Secondary cytotoxicity test, NCI-H23; assay type: cell-based
Protocol: as §1, §2

[6] = test system: HCT-116 Human colorectal carcinoma; experiment: Secondary cytotoxicity test, HCT-116; assay type: cell-based
Protocol: as §1, §2

[7] = test system: MCF-7 Human breast adenocarcinoma; experiment: Secondary cytotoxicity test, MCF-7; assay type: cell-based; settings: MCF7
Protocol: as §1, §2

[8] = test system: MKN45 Human stomach adenocarcinoma; experiment: Secondary cytotoxicity test, MKN45; assay type: cell-based; settings: MKN-45
Protocol: as §1, §2

[9] = test system: PC3 Human prostate adenocarcinoma; experiment: Secondary cytotoxicity test, PC3; assay type: cell-based; settings: PC-3
Protocol: as §1, §2

[10] = test system: Hela Human adenocarcinoma; experiment: Secondary cytotoxicity test, Hela; assay type: cell-based
Protocol: as §1, §2

[11] = test system: GBM #6 glioblastoma multiform patient originated cells; experiment: Neurosphere formation inhibition, GBM #6; assay type: cell-based, human; parameters: key: S: strong effect; I: intermediate effect; R: rare effect; settings: GBM #6, type B (classical), Temodal 20 μM, duration 23 day
Protocol: (§3) Particularly, to investigate neurosphere formation, glioblastoma multiform cells were cultured for a certain time and the cells were distributed again in culture vessels, followed by additional culture. Then, the number of newly generated neurospheres was measured. First, the glioblastoma multiform patient originated cells were sub-cultured, which were distributed in a 96-well plate (20, 50, and 200 cells in 50 μl of culture medium/well). 2, 6, and 20 μM of the compound of formula 1 (azathioprine) and the compound of Comparative Example 1 (Temodal) were treated thereto by 50 μl per well to make the final concentrations of 1, 3, and 10 μM. Then, the compound of formula 1 (azathioprine) and the compound of Comparative Example 1 (Temodal) were added to 50 μl of cell culture medium with the same concentrations as the above once a week, which were then cultured for 7˜23 days. When neurosphere was formed at least 50 μm in the control group not treated with the compound, the number of neurospheres in each well was counted to compare the neurosphere formation before and after the treatment of the compound of formula 1 (azathioprine) and the compound of Comparative Example 1 (Temodal).
(§4) The glioblastoma multiform cells used in this experiment were classified into 4 types, which are type A, type B, type C, and type D, according to the gene expression pattern. […]

[12] = test system: GBM #10 glioblastoma multiform patient originated cells; experiment: Neurosphere formation inhibition, GBM #10; assay type: cell-based, human; parameters: key: S: strong effect; I: intermediate effect; R: rare effect; settings: GBM #10, type D (non-classified), Temodal 20 μM, duration 10 day
Protocol: as §3, with “2, 6, and 20 μM of the compound of formula 1 (azathioprine) and the compound of Comparative Example 1 (Temodal) were treated thereto by 50 μl per well to make the final concentrations of 1, 3, and 10 μM.” left out
(§5) The glioblastoma multiform cells used in this experiment were classified into 4 types, which are type A, type B, type C, and type D, according to the gene expression pattern. Methylation of MGMT (O6-me-G methyltransferase), the DNA repair protein, was confirmed in each cell line. […]

[13] = test system: GBM #7 glioblastoma multiform patient originated cells; experiment: Neurosphere formation inhibition, GBM #7; assay type: cell-based, human; parameters: key: S: strong effect; I: intermediate effect; R: rare effect; settings: GBM #7, type B (classical), Temodal 20 μM, duration 23 day
Protocol: as §3, §4

[14] = test system: cells of lung cancer with brain metastasis transplanted in the mouse brain; experiment: Animal test with cells of lung cancer with brain metastasis, survival; assay type: in vivo; settings: azathioprine 2 mg/kg oral every day after day 11, Temodal (TMZ) 65 mg/kg oral 5 days from day 17
Protocol: The cells of lung cancer with brain metastasis were obtained from Samsung Hospital (Seoul) and cultured. The cultured cells (2×10^5/5 μl) were transplanted in the mouse brain. 17 days later, Temodal administration (65 mg/kg, oral administration) began, which continued for 5 days. The compound of formula 1 of the present invention (azathioprine) was co-treated to the mouse by oral-administration at the dose of 2 mg/kg every day after 11 days from the transplantation of the cells of lung cancer with brain metastasis in the mouse brain. Then, the average survival period was investigated.

[15] = test system: GBM #3 glioblastoma multiform patient originated cells; experiment: Neurosphere formation inhibition, GBM #3; assay type: cell-based, human; parameters: key: S: strong effect; I: intermediate effect; R: rare effect; settings: GBM #3, type A (proneural), Temodal 20 μM, duration 21 day
Protocol: as §3, with “2, 6, and 20 μM of the compound of formula 1 (azathioprine) and the compound of Comparative Example 1 (Temodal) were treated thereto by 50 μl per well to make the final concentrations of 1, 3, and 10 μM.” left out
as §5

[16] = test system: GBM #5 glioblastoma multiform patient originated cells; experiment: Neurosphere formation inhibition, GBM #5; assay type: cell-based, human; parameters: key: S: strong effect; I: intermediate effect; R: rare effect; settings: GBM #5, type B (classical), Temodal 20 μM, duration 21 day
Protocol: as §3, with “2, 6, and 20 μM of the compound of formula 1 (azathioprine) and the compound of Comparative Example 1 (Temodal) were treated thereto by 50 μl per well to make the final concentrations of 1, 3, and 10 μM.” left out
as §5

[17] = test system: GBM #1 glioblastoma multiform patient originated cells; experiment: Neurosphere formation inhibition, GBM #1; assay type: cell-based, human; parameters: key to inhibition of neurosphere formation: S: strong effect; I: intermediate effect; R: rare effect; settings: GBM #1, type A (proneural), Temodal 20 μM, duration 7 day
Protocol: as §3
The glioblastoma multiform cells used in this experiment were classified into 4 types, which are type A, type B, type C, and type D, according to the gene expression pattern. Methylation of MGMT (O6-me-G methyltransferase), the DNA repair protein, was confirmed in each cell line. At that time, type A [GBM #1, #2, #3] was proneural subtype, type B [GBM #4, #5, #6, #7] was classical subtype, type C [GBM #8] was mesenchymal subtype, and type D [GBM #9, #10] was non-classified glioblastoma multiform.

[18] = test system: GBM #9 glioblastoma multiform patient originated cells; experiment: Neurosphere formation inhibition, GBM #9; assay type: cell-based, human; parameters: key: S: strong effect; I: intermediate effect; R: rare effect; settings: GBM #9, type D (non-classified), Temodal 20 μM, duration 21 day
Protocol: as §3, with “2, 6, and 20 μM of the compound of formula 1 (azathioprine) and the compound of Comparative Example 1 (Temodal) were treated thereto by 50 μl per well to make the final concentrations of 1, 3, and 10 μM.” left out
as §5

[19] = test system: GBM #8 glioblastoma multiform patient originated cells; experiment: Neurosphere formation inhibition, GBM #8; assay type: cell-based, human; parameters: key: S: strong effect; I: intermediate effect; R: rare effect; settings: GBM #8, type C (mesenchymal), Temodal 20 μM, duration 15 day
Protocol: as §3, §4

[20] = test system: glioblastoma multiform cells transplanted in the brain of a mouse; experiment: Glioblastoma multiform orthotopic animal model, survival; assay type: in vivo; settings: single treatment; for Average Survival Period: Temodal 65 mg/kg oral for 5 days from day 17 after transplantation, control 27 days; for Survival Period Extension Rate (%): vs. untreated control, Temodal 65 mg/kg oral for 5 days from day 17
Protocol: Following experiment was performed to investigate the radiosensitizing effect and chemosensitizing effect of the compound of formula 1 (azathioprine) in the glioblastoma multiform orthotopic animal model.
Particularly, to investigate the resistance against Temodal or radiotherapy in glioblastoma multiform, glioblastoma multiform cells were cultured. The cultured cells (2×10^5/5 μl) were transplanted in the brain of a mouse. 17 days later, the administration of Temodal (65 mg/kg, oral-administration) or radiotherapy (2 Gy) began, which continued for 5 days. The average survival period was investigated. […] For the comparison, the survival period of the group treated with “Avastin”, the well-known anticancer agent, is also presented.
Glioblastoma multiform, glioblastoma multiform cells were cultured. The cultured cells (2×10^5/5 μl) were transplanted in the brain of a mouse. 17 days later, the administration of Temodal (65 mg/kg, oral-administration) or radiotherapy (2 Gy) began, which continued for 5 days. Unlike the above experiment, the compound of formula 1 of the present invention (azathioprine) was co-treated to the mouse by oral-administration at the dose of 20 mg/kg every day after 11 days from the glioblastoma multiform transplantation in the mouse brain. Then, the average survival period was investigated.

[21] = test system: GBM #4 glioblastoma multiform patient originated cells; experiment: Neurosphere formation inhibition, GBM #4; assay type: cell-based, human; parameters: key: S: strong effect; I: intermediate effect; R: rare effect; settings: GBM #4, type B (classical), Temodal 20 μM, duration 9 day
Protocol: as §3, with “2, 6, and 20 μM of the compound of formula 1 (azathioprine) and the compound of Comparative Example 1 (Temodal) were treated thereto by 50 μl per well to make the final concentrations of 1, 3, and 10 μM.” left out
as §5

[22] = test system: GBM #2 glioblastoma multiform patient originated cells; experiment: Neurosphere formation inhibition, GBM #2; assay type: cell-based, human; parameters: key: S: strong effect; I: intermediate effect; R: rare effect; settings: GBM #2, type A (proneural), Temodal 20 μM, duration 15 day
Protocol: as §3, with “2, 6, and 20 μM of the compound of formula 1 (azathioprine) and the compound of Comparative Example 1 (Temodal) were treated thereto by 50 μl per well to make the final concentrations of 1, 3, and 10 μM.” left out
as §5

## COc1cccc2c1C(=O)c1c(O)c3c(c(O)c1C2=O)C[C@@](O)(C(=O)CO)C[C@@H]3O[C@H]1C[C@H](N)[C@H](O)[C@H](C)O1 [Doxorubicin, reference compound]
[1]
  pIC50: 6.64
[2]
  pIC50: 6.36
[3]
  pIC50: 6.15
[4]
  pIC50: 6.02
[5]
  pIC50: 6.72
[6]
  pIC50: 6.41
[7]
  pIC50: 6.26
[8]
  pIC50: 6.55
[9]
  pIC50: 6.46
[10]
  pIC50: 6.43

## Cn1nnc2c(C(N)=O)ncn2c1=O [Temodal, temozolomide]
[11]
  inhibition of neurosphere formation: S
[12]
  inhibition of neurosphere formation: R
[13]
  inhibition of neurosphere formation: S
[14]
  Average Survival Period: 63 days
  Survival Period Extension Rate (%): 100-129%
[15]
  inhibition of neurosphere formation: R
[16]
  inhibition of neurosphere formation: S
[17]
  inhibition of neurosphere formation: S
[18]
  inhibition of neurosphere formation: S
[19]
  inhibition of neurosphere formation: R
[20]
  Average Survival Period: 31 days
  Survival Period Extension Rate (%): 19%
[21]
  inhibition of neurosphere formation: S
[22]
  inhibition of neurosphere formation: R

## Avastin: the well-known anticancer agent
[20]
  Average Survival Period: 28 days
  Survival Period Extension Rate (%): 8%
